pIC50: −log10 of the molar value. Non-standard residues stand in square brackets, D forms with d. Residues, ends and D or L forms follow the SMILES beside them. Phe(4-CONH2) = NC(=O)c1ccc(C[C@H](N)C(=O)O)cc1; Pro(cis-4-F) = O=C(O)[C@@H]1C[C@H](F)CN1; hPhe = N[C@@H](CCc1ccccc1)C(=O)O; hSer = N[C@@H](CCO)C(=O)O
target: Kelch-like ECH-associated protein 1 (Homo sapiens, UniProt Q14145); assay: Binding affinity to human KEAP1 Kelch domain (322 to 609 residues) incubated for 60 mins by TR-FRET assay
Sequence (Q14145 whole entry, the tested form may be a part): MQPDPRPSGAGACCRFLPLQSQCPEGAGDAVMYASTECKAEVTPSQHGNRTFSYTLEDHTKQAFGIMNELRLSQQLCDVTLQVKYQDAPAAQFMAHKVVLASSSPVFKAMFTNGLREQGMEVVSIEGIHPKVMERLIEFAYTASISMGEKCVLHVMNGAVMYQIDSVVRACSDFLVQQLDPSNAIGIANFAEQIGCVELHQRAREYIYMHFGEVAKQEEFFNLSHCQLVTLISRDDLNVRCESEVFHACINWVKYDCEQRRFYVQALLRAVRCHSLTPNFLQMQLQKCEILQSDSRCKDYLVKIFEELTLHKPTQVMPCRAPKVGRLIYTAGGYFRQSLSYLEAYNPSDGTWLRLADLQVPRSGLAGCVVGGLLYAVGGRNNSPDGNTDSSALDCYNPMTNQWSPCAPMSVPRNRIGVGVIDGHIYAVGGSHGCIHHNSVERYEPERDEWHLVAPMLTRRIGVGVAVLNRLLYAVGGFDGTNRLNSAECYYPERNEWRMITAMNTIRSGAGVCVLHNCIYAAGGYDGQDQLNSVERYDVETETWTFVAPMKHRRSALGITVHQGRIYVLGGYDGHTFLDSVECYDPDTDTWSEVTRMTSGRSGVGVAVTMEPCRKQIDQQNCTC

pIC50 | Molecule
< 4.30 | CC(=O)N[C@@H](CC(C)C)C(=O)N[C@@H](CC(=O)O)C(=O)N[C@@H](CCC(=O)O)C(=O)N[C@@H](CCC(=O)O)C(=O)N[C@H](C(=O)NCC(=O)N[C@@H](CCO)C(=O)N[C@@H](Cc1ccccc1)C(=O)N[C@@H](CC(C)C)C(N)=O)[C@@H](C)O (Ac-LDEETG[hSer]FL-NH2)
< 4.19 | Ac-LDEQTGEFL-NH2
< 4.19 | CC(=O)N[C@@H](CC(C)C)C(=O)N[C@@H](CC(=O)O)C(=O)N[C@@H](CCC(=O)O)C(=O)N[C@@H](CCc1ccccc1)C(=O)N[C@H](C(=O)NCC(=O)N[C@@H](CCC(=O)O)C(=O)N[C@@H](Cc1ccccc1)C(=O)N[C@@H](CC(C)C)C(N)=O)[C@@H](C)O (Ac-LDE[hPhe]TGEFL-NH2)
< 4.19 | CC(=O)N[C@@H](CC(C)C)C(=O)N[C@@H](CC(=O)O)C(=O)N1C[C@@H](F)C[C@H]1C(=O)N[C@@H](CCC(=O)O)C(=O)N[C@@H](Cc1ccccc1)C(=O)NCC(=O)N[C@@H](CCC(=O)O)C(=O)N[C@@H](Cc1ccccc1)C(=O)N[C@@H](CC(C)C)C(N)=O (Ac-LD[Pro(cis-4-F)]EFGEFL-NH2)
< 4.19 | CC(=O)N[C@@H](CC(C)C)C(=O)N[C@@H](CC(=O)O)C(=O)N[C@@H](CCC(=O)O)C(=O)N[C@@H](CCC(=O)O)C(=O)N[C@H](C(=O)NCC(=O)N[C@@H](Cc1ccc(C(N)=O)cc1)C(=O)N[C@@H](Cc1ccccc1)C(=O)N[C@@H](CC(C)C)C(N)=O)[C@@H](C)O (Ac-LDEETG[Phe(4-CONH2)]FL-NH2)

From ChEMBL document CHEMBL4665857, “Optimization of linear and cyclic peptide inhibitors of KEAP1-NRF2 protein-protein interaction” (Bioorg Med Chem, 2020)
